Earlier results in US11583515B2, “Composition and method for rapidly inducing an endogenous ketosis” (priority 2015, dated 2023).
One block for each molecule: values may come before it.

Columns and labels:
[1] = test system: muscle cells; conditions: with and without the presence of insulin or exercise
[2] = in vivo
[3] = test system: Dawley rats
[4] = test system: insulin signaling cascade; conditions: 600, 1200, and 1800 mg daily for four weeks; individuals with impaired insulin signaling cascades
[5] = racemic mixture of R and S enantiomers, taken orally

Molecule: [Cr] [Chromium]
doses used without any reported adverse effects (chromium containing supplements): up to 1000 mcg
rate of cellular glucose uptake [1]: several times normal
absorption, share of an ingested dose [2]: 1-2%
complete plasma clearance half-life [2]: 8 to 12 h

blood level of beta-hydroxybutyrate, acetoacetate, and acetone ([3]; supplementation): increases
Molecule: beta-hydroxybutyrate salts
effect on triglycerides or total cholesterol ([3]; after four weeks of repeated daily ingestion): no effect
effect on blood glucose numbers ([3]; orally supplemented, 28 days): improved
effect to promote weight loss ([3]; orally supplemented, 28 days): no effect

effect on mother or child (2014 study, treating peripheral neuropathy during pregnancy): no harmful effect
bioavailability after absorption [5]: ~30%
complete plasma clearance [5]: approximately three hours
half-life [5]: thirty minutes to one and one half hours
Molecule: O=C(O)CCCCC1CCSS1 (racemic) [Alpha Lipoic acid, 1,2-dithiolane-3-pentanoic acid]
safety of supplementation (animal or human studies, various ranges of intake, large doses or extended use): safe with no widespread serious or life-threatening reactions reported
improvement of effectiveness of the signaling cascade on glucose uptake and utilization [4]: 25%
